Experiment [1] addresses T1, Full-length PRMT5 enzyme (NCBI Reference sequence NP_006100.2) co-expressed with His6-MEP50 (Homo sapiens (Human), UniProt O14744). Briefly: PRMT5 Biochemical Assay. The following applies: 200 nM peptide substrate, 1 μM S-Adenosyl methionine, 4 hours at 37° C., Transcreener EPIGEN fluorescence polarisation. On the procedure:
Compounds of the invention may be tested for in vitro activity in the following assay: A histone H4 derived peptide is used as substrate (amino acid sequence: […]N H2). Full-length PRMT5 enzyme (NCBI Reference sequence NP_006100.2) was co-expressed with His6-MEP50 in insect cells and purified via Nickel immobilized metal affinity and gel filtration chromatography (“the enzyme”).
The 6 μL assay reactions are run in Greiner brand black 384-well low volume plates. All reactions contained assay buffer (phosphate buffered saline, 0.01% (v/v) Tween-20, 0.01% (w/v) albumin from chicken egg white, 1 mM dithiothreitol, 200 nM peptide substrate, 1 μM S-Adenosyl methionine, and 15 ng/reaction enzyme, with the enzyme being omitted from negative control reactions. Compounds were added in a volume of 100 nL from dilution series prepared in DMSO, positive and negative control reactions receiving the same volume DMSO without compound. The plates were sealed with adhesive seals and incubated for 4 hours at 37° C. Reaction progress was measured using the Transcreener™ EPIGEN methyltransferase assay (BellBrook Labs, Madison, Wis.) as recommended by the manufacturer. To each reaction 2 μL detection mix were added, containing coupling enzymes, fluorescence polarisation tracer, and AMP antibody. Plates were incubated for 90 min before being read on a PerkinElmer EnVision™ plate reader in fluorescence polarisation mode. IC50 values were obtained from the raw readings by calculating percent inhibition (%1) for each reaction relative to controls on the same plate (% I=(I−CN)/(CP−CN) where CN/CP are the averages of the negative/positive reactions, respectively), then fitting the % I data vs. compound concentration [I] to % I=(A+((B−A)/(1+((C/[I])^D)))) where A is the lower asymptote, B is the upper asymptote, C is the IC50 value, and D is the slope.

The test system of experiment [2] is symmetrical dimethylation of arginine (Di-Methyl Histone H4R3) in cell line TE11. Briefly: PRMT5 Biomarker Assay (symmetrical dimethylation of arginine, Di-Methyl Histone H4R3 ELISA). Format: cell-based. Particulars: Homo sapiens, TE-11; TE11 cells, 72 h incubation, EpiQuik ELISA, corrected for total protein. On the procedure: (§1) Compounds of the invention may be tested for potency to inhibit symmetrical dimethylation of arginine in the following assay:
The cell line TE11 was seeded at a density of 12,000 cells per well in 96 well tissue culture plates in DME medium and 10% foetal bovine serum, and allowed to adhere overnight under standard culture conditions (37° C., 5% CO2). Compound dilutions prepared in DMSO were added to the medium, with negative control wells reserved for treatment with DMSO only and positive controls receiving a potent PRMT5 inhibitor. The concentration of the inhibitor had been previously determined to give maximum inhibition of the methylation. After incubation for 72 h, cells were washed twice in ice-cold PBS, lysed in lysis buffer (20 mM Tris pH 7.4, 135 mM NaCl, 1.5 mM MgCl2, 1 mM EGTA, 10% glycerol and 1% Triton-X100), centrifuged at 15,000×g and the supernatants collected for subsequent analysis. The methylation level was determined using the EpiQuik™ Global Di-Methyl Histone H4R^3 Quantification ELISA Kit (Epigentek, Farmingdale, N.Y.) as per the manufacturer's recommendations; in parallel the total protein amount in the lysate was quantified using a Lowry protein assay. […]

Experiment [3] deals with T1, Full-length PRMT5 enzyme (NCBI Reference sequence NP_006100.2) co-expressed with His6-MEP50. Kind of experiment: Revised PRMT5 Biochemical Assay. Particulars: 1 μM peptide substrate, 1 μM S-Adenosyl methionine, 4 hours at 37 degree Celsius, Transcreener EPIGEN fluorescence polarisation. The method, boiled down: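 Full-length PRMT5 co-expressed with His6-MEP50 in insect cells (15 ng/reaction) was run with 1 μM H4-derived peptide and 1 μM SAM in PBS, 0.01% Tween-20, 0.01% albumin and 1 mM DTT for 4 h at 37 °C. Product was read by Transcreener EPIGEN fluorescence polarisation, and IC50 came from a 4-parameter fit.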

Experiment [4] has as its system symmetrical dimethylation of arginine (Di-Methyl Histone H4 Arginine 3) in cell line TE11. Briefly: Revised PRMT5 Biomarker Assay (Di-Methyl Histone H4 Arginine 3 immunofluorescence). Particulars: TE11 cells, 72 hours. The experiment is classed as cell-based. The protocol:
as §1
The cell line TE11 was seeded at a density of 6,000 cells per well in 96 well optical quality tissue culture plates in DME medium and 10% foetal bovine serum, and allowed to adhere for 5 hours under standard culture conditions (37 degree Celsius, 5% CO2). […] After incubation for 72 hours, the cells were fixed with 3.7% formaldehyde in PBS for 30 minutes at room temperature, washed with phosphate buffer saline and blocked with Odyssey blocking buffer (LI-COR, Lincoln, Nebr.). Rabbit anti-Di-Methyl Histone H4 Arginine 3 specific antibody (Epigentek) in Odyssey blocking buffer was added and incubated for 14 hours at 4 degree Celsius. […] Alternatively, the plates were imaged on a PerkinElmer Phenix high content imaging platform. […] The resulting mean intensity per cell was directly converted to percent inhibition as outlined above (IC50, imager based).

Setting [5] is: Homo sapiens, TE-11, PerkinElmer Phenix high content imaging, mean intensity per cell, read-out: IC50 - image based.

Counter-ions that a name gives are not always drawn. Like-named read-outs stand apart in the source and are kept apart here.

T1 sequence (O14744 whole entry): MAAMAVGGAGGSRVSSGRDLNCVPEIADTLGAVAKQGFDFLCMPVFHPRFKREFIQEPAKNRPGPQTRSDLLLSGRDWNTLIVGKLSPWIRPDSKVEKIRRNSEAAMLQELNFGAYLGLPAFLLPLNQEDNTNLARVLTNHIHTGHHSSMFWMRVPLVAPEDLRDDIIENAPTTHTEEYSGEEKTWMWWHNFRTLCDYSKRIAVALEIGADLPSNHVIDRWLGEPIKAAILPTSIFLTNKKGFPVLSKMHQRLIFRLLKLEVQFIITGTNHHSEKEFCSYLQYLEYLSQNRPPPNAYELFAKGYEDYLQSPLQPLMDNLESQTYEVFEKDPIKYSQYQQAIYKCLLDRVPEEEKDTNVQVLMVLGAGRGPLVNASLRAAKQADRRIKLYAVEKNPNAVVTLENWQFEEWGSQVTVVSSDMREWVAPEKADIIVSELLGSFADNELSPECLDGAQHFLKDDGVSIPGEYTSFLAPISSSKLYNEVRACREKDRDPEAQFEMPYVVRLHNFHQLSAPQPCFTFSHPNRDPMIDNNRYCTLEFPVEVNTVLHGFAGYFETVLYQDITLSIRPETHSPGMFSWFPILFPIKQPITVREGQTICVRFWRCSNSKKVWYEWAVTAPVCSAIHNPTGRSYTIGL
T1 sequence (Q9BQA1 whole entry partner): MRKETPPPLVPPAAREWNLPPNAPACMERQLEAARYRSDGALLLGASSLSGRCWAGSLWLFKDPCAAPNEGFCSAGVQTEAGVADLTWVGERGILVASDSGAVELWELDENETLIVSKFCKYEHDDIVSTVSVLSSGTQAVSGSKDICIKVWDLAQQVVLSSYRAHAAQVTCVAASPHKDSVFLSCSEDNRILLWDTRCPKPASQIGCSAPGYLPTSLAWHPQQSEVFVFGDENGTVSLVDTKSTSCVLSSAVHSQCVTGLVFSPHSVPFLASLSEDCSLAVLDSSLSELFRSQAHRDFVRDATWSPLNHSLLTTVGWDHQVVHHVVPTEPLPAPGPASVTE

In the case of `O=C(NCC(O)CC1Cc2ccccc2CN1)c1ccc(C(=O)N2CCOCC2)cc1` (centres unmarked) [Example 1, N-(2-Hydroxy-3-(1,2,3,4-tetrahydroisoquinolin-3-yl)propyl)-4-(morpholine-4-carbonyl)benzamide], the IC50 in experiment [1] was 4.69 µM; in experiment [2], 0.956 µM.

Turning to `O=C(NCC(O)C1Cc2ccccc2CN1)c1ccc(C(=O)N2CCOCC2)cc1` (centres unmarked) [Example 2, N-(2-hydroxy-2-(1,2,3,4-tetrahydroisoquinolin-3-yl)ethyl)-4-(morpholine-4-carbonyl)benzamide], the IC50 in experiment [1] is 0.763 µM; in experiment [2] it was 0.0072 µM.

On to `O=C(NC[C@H](O)[C@H]1Cc2ccccc2CN1)c1ccc(C(=O)N2CCOCC2)cc1` [Example 53, N—((S)-2-hydroxy-2-((R)-1,2,3,4-tetrahydroisoquinolin-3-yl)ethyl)-4-(morpholine-4-carbonyl)benzamide hydrochloride], for which the IC50 came out at 22 µM in experiment [1] and 21.2 µM in experiment [3].

With `O=C(NC[C@@H](O)[C@@H]1Cc2ccccc2CN1)c1ccnc(OC2CCOC2)c1` (stereo partly drawn) [Example 104, N—((R)-2-Hydroxy-2-((S)-1,2,3,4-tetrahydroisoquinolin-3-yl)ethyl)-2-((tetrahydrofuran-3-yl)oxy)isonicotinamide bis(2,2,2-trifluoroacetate)], the results for the IC50 in experiment [3] and in experiment [4] (setting [5]) were 0.147 µM and 0.012 µM, respectively.

In the case of `COC(=O)N1[C@@H]2CC[C@H]1C[C@@H](Oc1cc(C(=O)NC[C@@H](O)[C@@H]3Cc4ccccc4CN3)ccn1)C2` [Example 105, Methyl (1R,3r,5S)-3-((4-(((R)-2-hydroxy-2-((S)-1,2,3,4-tetrahydroisoquinolin-3-yl)ethyl)carbamoyl)pyridin-2-yl)oxy)-8-azabicyclo[3.2.1]octane-8-carboxylate], the IC50 in experiment [3] came out at 0.038 µM; in experiment [4] (PerkinElmer Phenix high content imaging, mean intensity per cell, read-out: IC50 - image based) it was 0.001 µM.

As for `O=C(NC[C@@H](O)[C@@H]1Cc2ccccc2CN1)c1ccc(C(=O)N2C3CCC2COC3)cc1C(F)F` [Example 106, 4-(3-Oxa-8-azabicyclo[3.2.1]octane-8-carbonyl)-2-(difluoromethyl)-N—((R)-2-hydroxy-2-((S)-1,2,3,4-tetrahydroisoquinolin-3-yl)ethyl)benzamide], the figures for the IC50 in experiment [3] and in experiment [4] (setting [5]) were 0.212 µM and 0.005 µM, respectively.

Turning to `CCOc1cc(C(=O)N2C3CCC2COC3)ccc1C(=O)NC[C@@H](O)[C@@H]1Cc2ccc(C)cc2CN1` [Example 108, 4-(3-Oxa-8-azabicyclo[3.2.1]octane-8-carbonyl)-2-ethoxy-N—((R)-2-hydroxy-2-((S)-7-methyl-1,2,3,4-tetrahydroisoquinolin-3-yl)ethyl)benzamide], the IC50 was 0.017 µM in experiment [3] and 0.001 µM in experiment [4] (Homo sapiens, TE-11, PerkinElmer Envision fluorescence intensity, corrected for Hoechst 33342, read-out: IC50 - plate-reader based).
